Earlier results, collected in patent publication US20080242727A1, “DIETARY COMPOSITIONS CONTAINING ALPHA AMINO N-BUTYRATE AND METHODS OF ENHANCING LEAN BODY MASS” (priority 2007, published 2008).

Key:
[1] = system: erythroid progenitors; conditions: in vivo or in culture
[2] = system: protein synthesis in skeletal muscle; conditions: for protein synthesis in skeletal muscle of food-deprived rats: oral administration, vs saline-treated controls
[3] = system: hemidiaphragms from fed or fasted rats; conditions: in vitro; for specific activity of muscle proteins (protein synthesis): [14C]lysine, with or without insulin
[4] = system: hearts perfused with buffer; conditions: for negative nitrogen balance: buffer with glucose and normal plasma levels of other amino acids, except BCAA
[5] = system: rat liver proteolysis; conditions: out of 12 amino acids tested; only at concentrations much higher than physiological
[6] = dose of as little as 3 g/day

Row | Compound | protein synthesis in skeletal muscle of food-deprived rats [2] | specific activity of muscle proteins (protein synthesis) [3] | negative nitrogen balance [4] | also measured
1 | CCC(N)C(=O)O (stereo not drawn) [ABA, alpha amino n-butyrate] |  |  |  | growth of erythroid progenitors [1]: stimulated the growth of all classes of erythroid progenitors
2 | CC(C)[C@H](N)C(=O)O [valine] | ineffective | no effect | not | 
3 | CC(C)C[C@H](N)C(=O)O [Leucine, L-Leucine] | stimulated protein synthesis | increased | decreased the negative nitrogen balance | protein synthesis / eIF4F formation ([2]; independently of increases in serum insulin): stimulated protein synthesis by enhancing eukaryotic initiation factor (eIF)4F formation; muscle synthesis after exercise ([2]; oral gavage to rats after exercise): stimulated muscle synthesis independent of increased plasma insulin; glucocorticoid-induced decreases in protein synthesis and mRNA translation ([2]; oral, rats): restored; protein degradation [3]: prohibited protein degradation; rate of protein synthesis as % of the rate of proteolysis ([4]; leucine concentrations giving maximal inhibition of protein degradation): 50%; inhibition of deprivation-induced rat liver proteolysis [5]: strongest inhibitor
4 | CC(C)(O)CC(=O)O [HMB, b-hydroxy b-methylbutyrate] |  |  |  | effect on catabolism, lean muscle mass and recuperation [6]: anti-catabolic, promotes lean muscle mass, and may speed recuperation
5 | CC[C@H](C)[C@H](N)C(=O)O [isoleucine] | ineffective | inhibitory effects | not | 
